Test results reported in patent US11878984B2, “Compounds derived from Streptomyces and uses thereof” (KOREA INSTITUTE OF OCEAN SCIENCE & TECHNOLOGY, priority 2018, dated 2024).

What was measured:
BV-2 microglial cells [1] = test: Nitrite assay: LPS-stimulated NO production in BV-2 microglial cells; type: cell-based; details: for NO production decreased compared to the control group: 100 μM compound
Experimental: (§1) BV-2 microglial cells were cultured in Dulbecco's modified Eagle medium supplemented with 5% Fetal bovine serum and 1% 100 units/mL of penicillin/streptomycin at 37° C. in a humidified 5% CO2 incubator.
For Nitrite assay, the BV-2 microglial cells seeded at a density of 1.25×10^5 cell/each well in 24-well plate were pretreated with various concentrations of compounds 1-4 for 1 h, followed by LPS (200 ng/mL) for 24 h. A range of sodium nitrite dilutions was used to obtain a standard curve with the amount of nitrite in each sample. Absorbance was determined at 540 nm using a microplate reader (Tecan Trading AG).

BV-2 microglial cells [2] = test: MTT assay: cell viability of LPS-stimulated BV-2 microglial cells; type: cell-based
Experimental: as §1
The BV-2 microglial cells seeded at a density of 1.25×10^5 cell/each well in 24-well plate were pretreated with various concentration of compounds (12.5, 25, 50, and 100 μM for compounds 1-3 and 1, 2, 4, and 8 μM for compound 4) for 1 h, followed by LPS (200 ng/mL) for 24 h. 20 μL of MTT (2 mg/mL) solution was added to each well. After 1 h, the supernatant was sucked out and crystals of formazan were dissolved in DMSO. Optical density was measured at 550 nm using a microplate reader (Tecan Trading AG) and values were determined in comparison to control cells.

[3] = pretreated 1 h, then LPS (200 ng/mL) 24 h

SMILES | NO production decreased compared to the control group (BV-2 microglial cells [1]; [3]) | NO production reduced compared to the control group (BV-2 microglial cells [1]; compound at low concentration of 1 to 8 μM, pretreated 1 h, then LPS (200 ng/mL) 24 h) | NO production inhibiting effect (BV-2 microglial cells [1]; low concentration of less than 10 μM) | cellular viability (BV-2 microglial cells [2]; 1, 2, 4 and 8 μM, pretreated 1 h, then LPS (200 ng/mL) 24 h, MTT, compared to control cells) | cytotoxicity (BV-2 microglial cells [2]; low concentration of less than 10 μM, BV-2 microglial cells (FIG. 12))
C/C=C/C=C/CC[C@]12OCC[C@@H]3OC[C@](O)(CO1)[C@@H]32 [Compound 1, (2aS,2a^1R,4aS,7aS)-7a-((3E,5E)-hepta-3,5-diene-1-yl)tetrahydro-2H,6H,1,4,7-trioxacyclopenta[cd]indene-2a(3H)-ol] | about 22% | – | – | – | –
C/C=C/C=C/C=C/[C@]12OCC[C@@H]3OC[C@](O)(CO1)[C@@H]32 [Compound 2, (2aS,2a^1R,4aS,7aS)-7a-((1E,3E,5E)-hepta-1,3,5-triene-1-yl)tetrahydro-2H, 6H,1,4,7-trioxacyclopenta[cd]indene-2a(3H)-ol] | about 25% | – | – | – | –
C/C=C/C=C/CC[C@]12OCC[C@@H]3OC[C@](OC(=O)c4ccccc4N)(CO1)[C@@H]32 [Compound 3, (2aS,2a^1R,4aS,7aS)-7a-((3E,5E)-hepta-3,5-diene-1-yl)tetrahydro-2H,6H,1,4,7-trioxacyclopenta[cd]indene-2a(3H)-yl-2-aminobenzoate] | about 50% | – | – | – | –
C/C=C/C=C/C=C/[C@]12OCC[C@@H]3OC[C@](OC(=O)c4ccccc4N)(CO1)[C@@H]32 [Compound 4, (2aS,2a^1R,4aS,7aS)-7a-((1E, 3E,5E)-hepta-1,3,5-triene-1-yl)tetrahydro-2H, 6H,1,4,7-trioxacyclopenta[cd]indene-2a(3H)-yl-2-aminobenzoate] | – | about 93% | strong NO production inhibiting effect | less than 80% | cytotoxicity
